From PubChem BioAssay AID248 (DTP/NCI, 2004)
“And” between values parts separate entries of the source, which are not always exact repeats. Equal values may be shown once. Inconclusive results and toxic doses are left out.

Test system: L1210 leukemia ip in BDF1 mice, survival T/C
Experiment: NCI In Vivo Anticancer Drug Screen. Data for tumor model L1210 Leukemia (intraperitoneal) in B6D2F1 (BDF1) mice
Conditions: endpoint: mean survival time, higher = longer survival
In short: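 Tumor cells were implanted, animals were treated, and survival was followed. The result divides the treated measurement by the vehicle-control measurement.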

[1] = dose: 100.0 mg/kg/injection, schedule: Q04DX003 (ip), vehicle: saline with Tween-80
[2] = dose: 200.0 mg/kg/injection, schedule: Q04DX003 (ip), vehicle: saline with Tween-80
[3] = dose: 400.0 mg/kg/injection, schedule: Q04DX003 (ip), vehicle: saline with Tween-80
[4] = dose: 100.0 mg/kg/injection, schedule: Q04DX002 (ip), vehicle: Klucel (hydroxypropylcellulose) (HPC)
[5] = dose: 200.0 mg/kg/injection, schedule: Q04DX002 (ip), vehicle: Klucel (hydroxypropylcellulose) (HPC)
[6] = dose: 400.0 mg/kg/injection, schedule: Q04DX002 (ip), vehicle: Klucel (hydroxypropylcellulose) (HPC)
[7] = dose: 100.0 mg/kg/injection, schedule: Q04DX003 (ip), vehicle: saline
[8] = dose: 50.0 mg/kg/injection, schedule: Q01DX009 (ip), vehicle: Klucel (hydroxypropylcellulose) (HPC)
[9] = dose: 400.0 mg/kg/injection, schedule: Q01DX001 (ip), vehicle: saline
[10] = dose: 100.0 mg/kg/injection, schedule: Q01DX001 (ip), vehicle: saline
[11] = dose: 200.0 mg/kg/injection, schedule: Q01DX001 (ip), vehicle: saline

SMILES: OC1(C2C=CC=C2)c2ccccc2C=Cc2ccccc21
- T/C (dose: 9.38 mg/kg/injection, schedule: Q01DX001 (ip), vehicle: other): 100 % of control
- T/C (dose: 18.75 mg/kg/injection, schedule: Q01DX001 (ip), vehicle: other): 100 % of control
- T/C (dose: 37.5 mg/kg/injection, schedule: Q01DX001 (ip), vehicle: other): 100 % of control

SMILES: CC1CCC2(O)C3(C)CC(=O)OC2(C1O)C1(O)C(C)C(O)(C(C)C)C(O)C31O (configuration not stated)
- T/C (dose: 5.0 mg/kg/injection, schedule: Q01DX001 (ip), vehicle: saline): 101 % of control

SMILES: CC(=O)N\C(N)=N/N=C\C(C)=N/N=C(\N)NC(C)=O
- T/C (dose: 15.0 mg/kg/injection, schedule: Q01DX Z (ip), vehicle: carboxymethylcellulose (CMC)): 94 % of control
- T/C (dose: 30.0 mg/kg/injection, schedule: Q01DX Z (ip), vehicle: carboxymethylcellulose (CMC)): 94 % of control
- T/C (dose: 60.0 mg/kg/injection, schedule: Q01DX Z (ip), vehicle: carboxymethylcellulose (CMC)): 97 % of control and 100 % of control
- T/C (dose: 120.0 mg/kg/injection, schedule: Q01DX Z (ip), vehicle: carboxymethylcellulose (CMC)): 94 % of control and 102 % of control
- T/C (dose: 240.0 mg/kg/injection, schedule: Q01DX Z (ip), vehicle: carboxymethylcellulose (CMC)): 109 % of control

SMILES: COc1ccc(/C(=C(/CC(=O)O)C(=O)OC(C)(C)C)c2cc(OC)c(OC)c(OC)c2)cc1OC
- T/C (dose: 100.0 mg/kg/injection, schedule: Q01DX001 (ip), vehicle: carboxymethylcellulose (CMC)): 96 % of control
- T/C (dose: 200.0 mg/kg/injection, schedule: Q01DX001 (ip), vehicle: carboxymethylcellulose (CMC)): 102 % of control
- T/C (dose: 400.0 mg/kg/injection, schedule: Q01DX001 (ip), vehicle: carboxymethylcellulose (CMC)): 97 % of control

SMILES: ON=C1CSCSC1
- T/C (dose: 12.5 mg/kg/injection, schedule: Q04DX002 (ip), vehicle: saline): 91 % of control
- T/C (dose: 25.0 mg/kg/injection, schedule: Q04DX002 (ip), vehicle: saline): 94 % of control
- T/C (dose: 50.0 mg/kg/injection, schedule: Q04DX002 (ip), vehicle: saline): 88 % of control

SMILES: Cc1ccc(S(=O)(=O)N(C)Cc2ccccc2)cc1
- T/C [1]: 95 % of control
- T/C [2]: 101 % of control
- T/C [3]: 101 % of control

SMILES: CC12CC3(C)CC(Cl)(C1)CC(Cl)(C2)C3
- T/C [4]: 90 % of control
- T/C [5]: 102 % of control
- T/C [6]: 119 % of control

SMILES: Nc1ccc(N=Nc2ccccc2)c(N)n1
- T/C (dose: 100.0 mg/kg/injection, schedule: Q04DX003 (ip), vehicle: Klucel (hydroxypropylcellulose) (HPC)): 89 % of control
- T/C [7]: 97 % of control
- T/C (dose: 200.0 mg/kg/injection, schedule: Q04DX003 (ip), vehicle: Klucel (hydroxypropylcellulose) (HPC)): 90 % of control

SMILES: COCCNCCN1CCN(CCCN2c3ccccc3Sc3ccc(C(F)(F)F)cc32)CC1
- T/C (dose: 6.25 mg/kg/injection, schedule: Q04DX003 (ip), vehicle: saline): 110 % of control
- T/C (dose: 12.5 mg/kg/injection, schedule: Q01DX009 (ip), vehicle: saline): 107 % of control
- T/C (dose: 12.5 mg/kg/injection, schedule: Q04DX003 (ip), vehicle: saline): 96 % of control and 100 % of control
- T/C (dose: 25.0 mg/kg/injection, schedule: Q01DX009 (ip), vehicle: saline): 105 % of control
- T/C (dose: 25.0 mg/kg/injection, schedule: Q04DX003 (ip), vehicle: saline): 95 % of control and 105 % of control
- T/C (dose: 50.0 mg/kg/injection, schedule: Q04DX003 (ip), vehicle: saline): 102 % of control and 108 % of control

SMILES: Nc1ncc[nH]1
- T/C (dose: 100.0 mg/kg/injection, schedule: Q01DX009 (ip), vehicle: saline): 107 % of control
- T/C (dose: 100.0 mg/kg/injection, schedule: Q04DX002 (ip), vehicle: saline): 90 % of control
- T/C (dose: 200.0 mg/kg/injection, schedule: Q01DX009 (ip), vehicle: saline): 114 % of control
- T/C (dose: 200.0 mg/kg/injection, schedule: Q04DX002 (ip), vehicle: saline): 93 % of control
- T/C (dose: 400.0 mg/kg/injection, schedule: Q01DX009 (ip), vehicle: saline): 122 % of control
- T/C (dose: 400.0 mg/kg/injection, schedule: Q04DX002 (ip), vehicle: saline): 90 % of control

SMILES: CC(=O)OC1C=C2CCC3C(CCC4(C)C(OC(C)=O)CCC34)C2(C)CC1 (configuration not stated)
- T/C (dose: 12.5 mg/kg/injection, schedule: Q01DX009 (ip), vehicle: Klucel (hydroxypropylcellulose) (HPC)): 92 % of control
- T/C (dose: 25.0 mg/kg/injection, schedule: Q01DX009 (ip), vehicle: Klucel (hydroxypropylcellulose) (HPC)): 92 % of control
- T/C [8]: 90 % of control
- T/C (dose: 75.0 mg/kg/injection, schedule: Q01DX009 (ip), vehicle: Klucel (hydroxypropylcellulose) (HPC)): 101 % of control
- T/C (dose: 115.0 mg/kg/injection, schedule: Q01DX009 (ip), vehicle: Klucel (hydroxypropylcellulose) (HPC)): 98 % of control
- T/C (dose: 170.0 mg/kg/injection, schedule: Q01DX009 (ip), vehicle: Klucel (hydroxypropylcellulose) (HPC)): 95 % of control

SMILES: COc1cc(C(=O)O)c2c(c1C)OC(=O)c1c(C)cc(O)c(C=O)c1O2
- T/C (dose: 8.0 mg/kg/injection, schedule: Q01DX Z (ip), vehicle: saline): 91 % of control
- T/C (dose: 16.0 mg/kg/injection, schedule: Q01DX Z (ip), vehicle: saline): 102 % of control
- T/C (dose: 32.0 mg/kg/injection, schedule: Q01DX Z (ip), vehicle: saline): 100 % of control
- T/C (dose: 40.0 mg/kg/injection, schedule: Q04DX003 (ip), vehicle: Klucel (hydroxypropylcellulose) (HPC)): 97 % of control
- T/C (dose: 64.0 mg/kg/injection, schedule: Q01DX Z (ip), vehicle: saline): 111 % of control
- T/C (dose: 80.0 mg/kg/injection, schedule: Q04DX003 (ip), vehicle: Klucel (hydroxypropylcellulose) (HPC)): 107 % of control
- T/C (dose: 160.0 mg/kg/injection, schedule: Q04DX003 (ip), vehicle: Klucel (hydroxypropylcellulose) (HPC)): 107 % of control

SMILES: O=C(Nc1ccc(NC(=O)Nc2cc(C3=NCCN3)cc(C3=NCCN3)c2)cc1)Nc1cc(C2=NCCN2)cc(C2=NCCN2)c1
- T/C (dose: 15.0 mg/kg/injection, schedule: Q01DX Z (ip), vehicle: saline): 90 % of control

SMILES: O=[N+]([O-])c1ccc(/C=N/Nc2c3ccccc3nc3ccccc23)cc1
- T/C [9]: 94 % of control

SMILES: CCC1(CCCCCBr)OCCO1
- T/C [4]: 101 % of control
- T/C [5]: 108 % of control
- T/C [6]: 104 % of control

SMILES: CN(C)N=Nc1ccc([N+](=O)[O-])cc1C(N)=O
- T/C (dose: 100.0 mg/kg/injection, schedule: Q01DX001 (ip), vehicle: saline with Tween-80): 117 % of control
- T/C (dose: 100.0 mg/kg/injection, schedule: Q01DX007 (ip), vehicle: saline with Tween-80): 124 % of control
- T/C [1]: 108 % of control
- T/C (dose: 180.0 mg/kg/injection, schedule: Q01DX009 (ip), vehicle: saline with Tween-80): 170 % of control
- T/C (dose: 200.0 mg/kg/injection, schedule: Q01DX001 (ip), vehicle: saline with Tween-80): 104 % of control
- T/C [2]: 105 % of control
- T/C (dose: 268.0 mg/kg/injection, schedule: Q01DX009 (ip), vehicle: saline with Tween-80): 167 % of control
- T/C (dose: 400.0 mg/kg/injection, schedule: Q01DX001 (ip), vehicle: saline with Tween-80): 108 % of control
- T/C (dose: 400.0 mg/kg/injection, schedule: Q01DX007 (ip), vehicle: saline with Tween-80): 154 % of control
- T/C (dose: 400.0 mg/kg/injection, schedule: Q01DX009 (ip), vehicle: saline with Tween-80): 122 % of control
- T/C [3]: 117 % of control
- T/C (dose: 600.0 mg/kg/injection, schedule: Q01DX009 (ip), vehicle: saline with Tween-80): 90 % of control

SMILES: O=C1Oc2ccccc2C1c1ccccc1 (configuration not stated)
- T/C (dose: 87.5 mg/kg/injection, schedule: Q01DX009 (ip), vehicle: other): 103 % of control
- T/C (dose: 175.0 mg/kg/injection, schedule: Q01DX009 (ip), vehicle: other): 108 % of control
- T/C (dose: 350.0 mg/kg/injection, schedule: Q01DX009 (ip), vehicle: other): 106 % of control

SMILES: CCCCC(=O)N/N=C/c1cccc(Br)c1
- T/C [10]: 102 % of control
- T/C [11]: 102 % of control
- T/C [9]: 98 % of control

SMILES: CNC(=O)Oc1ccccc1C(Cl)(Cl)Cl
- T/C [8]: 97 % of control
- T/C (dose: 100.0 mg/kg/injection, schedule: Q01DX009 (ip), vehicle: Klucel (hydroxypropylcellulose) (HPC)): 101 % of control
- T/C (dose: 200.0 mg/kg/injection, schedule: Q01DX009 (ip), vehicle: Klucel (hydroxypropylcellulose) (HPC)): 112 % of control

SMILES: CCOC(=O)C(C(=O)OCC)c1ccc(Cl)cc1
- T/C (dose: 50.0 mg/kg/injection, schedule: Q01DX001 (ip), vehicle: saline): 101 % of control
- T/C [10]: 101 % of control
- T/C [11]: 101 % of control
- T/C [9]: 106 % of control

SMILES: Cc1nccc(Cl)n1
- T/C [7]: 104 % of control
- T/C (dose: 200.0 mg/kg/injection, schedule: Q04DX003 (ip), vehicle: saline): 90 % of control
- T/C (dose: 400.0 mg/kg/injection, schedule: Q04DX003 (ip), vehicle: saline): 93 % of control
